Experimental data from patent US20110189241A1, “Process For Controlling The Particle Size of A [3-(Trifluoromethyl)Phenyl]-1-Aminopropane Derivative” (Medichem, S.A., priority 2008, published 2011).

Experiment: Particle size distribution (Malvern Mastersizer S, laser diffraction, by volume)
Format: physicochemical
Details: for particle size D[v, 0.5]: crystals as isolated after crystallization from isobutyl acetate and drying, mean of nine readings, hydrochloride
Method: The particle size for cinacalcet hydrochloride was measured using a Malvern Mastersizer S particle size analyzer with an MS1 Small Volume Sample Dispersion Unit stirred cell. A 300RF mm lens and a beam length of 2.4 mm were used. Samples for analysis were prepared by dispersing a weighed amount of cinacalcet hydrochloride (approximately 60 mg) in 20 mL of sample dispersant, previously prepared by dilution of 1.5 g of Soybean Lecithin to 200 mL with Isopar G. The suspension was delivered drop-wise to the background-corrected measuring cell filled with dispersant (Isopar G) until the obscuration reached the desired level. Nine repeated readings of the volume distributions were taken. For characterization, the values of D50 and D90 (by volume) were selected and reported as the mean of the nine values measured.

Row | Structure (SMILES) | particle size D[v, 0.9] (crystals as isolated after crystallization (Example 4)) [µm] | particle size D[v, 0.5] [μm] | particle size D[v, 0.9] (crystals as isolated after crystallization (Example 9)) [µm]
1 | C[C@@H](NCCCc1cccc(C(F)(F)F)c1)c1cccc2ccccc12.Cl [Example 4, cinacalcet hydrochloride] | 404 |  | 
2 | C[C@@H](NCCCc1cccc(C(F)(F)F)c1)c1cccc2ccccc12.Cl [Example 6, cinacalcet hydrochloride] |  | 65.0 | 
3 | C[C@@H](NCCCc1cccc(C(F)(F)F)c1)c1cccc2ccccc12.Cl [Example 9, cinacalcet hydrochloride] |  | 74.0 | 518
